Here are results for three compounds from US5498601A, “Platelet aggregation-inhibiting peptides” (Nippon Steel Corporation, priority 1992, dated 1996).

Residues, ends and D or L forms follow the SMILES beside them. *: point of attachment. X1 = O=C(c1cc(=O)[nH]c(=O)[nH]1)*

For data set [1], the system named is platelet aggregation. The experiment in a line: intravenous injection in beagle, platelet aggregation of PRP measured over time. It counts as in vivo. As to conditions: 5 mg/Kg i.v. The protocol: (1) In order to examine how long the peptides of the present invention and heparin, which is used as an anticoagulant at present, can remain without being broken down or eliminated and how long the activity of them persists, intravenous injection experiments were carried out using beagles.
Since the peptides of the present invention have the platelet aggregation-inhibiting activity, the amount of the peptides which remain in the body of an organism without being broken down can be determined by collecting blood and measuring the platelet aggregation-inhibiting activity of the blood at given intervals of time. Thus, the in vivo stability of the peptides can be estimated.
In the experiments, a male beagle having a body weight of 10 Kg was used. […] The collected blood was centrifuged at 1000 rpm for 10 minutes to prepare platelet-rich plasma (PRP). The reminder was further centrifuged at 3000 rpm for 15 minutes to prepare platelet-poor plasma (PPP).
The platelet aggregation ability was determined by measuring the platelet aggregation of the PRP with collagen and ADP using an aggregometer. In the measurement, ADP was added at a final concentration of 7.5 and 10.0 μM and collagen was added at a final concentration of 7.5 and 10.0 μg/ml.

The test system of data set [2] is blood coagulation in the dialysis circuit. The experiment in a line: extracorporeal circulation (artificial dialysis) model using a beagle. The data set is classed as in vivo. The method, then:
In order to confirm that the peptides of the present invention have the action of inhibiting blood coagulation in an extracorporeal circulation system, experiments were carried out on an artificial dialysis model using a beagle which is one of extracorporeal circulation models (see Hamano et al., Thromb. Res. 55 (1989) 438-449).
In the experiments, beagles weighing about 10-12 Kg were used. The beagles were anesthetized with pentobarbital (about 30 mg/Kg) and the right hind leg was incised to expose the femoral artery and femoral vein. Cannulas were inserted into the exposed femoral artery and femoral vein and connected to the artificial dialyzator for experiments (Kuraray, Osaka, Japan) having a circuit configuration as shown in FIG. 5. A hollow-fiber dialyzer (RENAK-A, RA-04, 0.4 m^2, Kawasumi Laboratories, Tokyo) was used. A pump for blood was placed between the femoral artery and the dialyzator and operated to keep the blood flow rate at 25 ml/min in the extracorporeal circulation system during the experiments.
The following three parameters were measured in the experiments: 1 the pressure in the up-stream portion of the dialyzer (perfusion pressure), 2 the percent platelet adhesion and 3 the whole blood coagulation time. The pressure under 1 was measured by a pressure gauge incorporated in the upper stream portion of the dialyzator in the dialysis circuit as shown in FIG. 5. Since at the site of dialyzer blood often experiences contacts with foreign materials and blood flows in a narrow space, blood coagulation is most likely to occur at this site in the dialysis circuit. If blood coagulation occurs there, the dialyzer is clogged and the blood pressure in the up-stream portion will increase. The change in the perfusion pressure at this site indicates the degree of blood coagulation in the dialysis circuit. In connection with parameters2 and 3, an aliquot of blood was sampled at the inlet and outlet of the dialysis part at given intervals of time to measure 2 and 3 by conventional methods. Parameters 2 and 3 indicate how the function of platelets and that of blood coagulation (the degree of activation), respectively, change with the progress of the experiments.
The experiments began with a continuous injection of a solution of the peptide of the present invention in saline from the arterial side (or the inlet side of the dialysis circuit) immediately after the circuit set-up. The amount of injection was 10 mg/dog or 30 mg/dog and the total amount was gradually injected over 1 hour (injection rate: 1 ml/min). In a control, only saline was continuously injected in the same manner. The injection of the drug was stopped after 60 minutes and blood was thereafter circulated up to 180 minutes to continue the measurement of the above parameters. […]

For data set [3], the system named is Hela cells. The data set is described as follows: adhesion of HeLa cells to extracellular matrix protein adsorbed plates. It counts as cell-based. The protocol: (§1) (1) Using type 1 collagen (Iwaki Glass, type I-c), type 4 collagen (Iwaki Glass, type IV), fibronectin (human-origin, Iwaki Glass), vitronectin (human-origin, Iwaki Glass) and laminin (mouse […] sarcoma-origin, Iwaki Glass) as extracellular matrix proteins, experiments were performed to examine cell adhesion to a plastic plate on which those ectracellular matrix proteins had been adsorbed.
(§2) Each of the collagens was diluted with saline (adjusted to pH 3.0 with hydrochloric acid) to prepare a dilution at a concentration of 100 μg/ml for use in adsorption. The remaining three proteins were diluted with PBS of pH 7.4 to prepare dilutions at a concentration of 20 μg/ml for further use. […]
(§3) After the incubation for one hour according to the method described above, all the liquid present in each well was removed and the wells were washed three times with PBS to remove non-adherent cells. […] The concentration of methylene blue releasing from the cells was determined by a spectrophotometer on the basis of absorbance at 600 nm measured. In this measurement system, the number of cells adhering to the extracellular matrix proteins is proportional to the absorbance at 600 nm and therefore can be measured with precision.

For data set [4], the system named is B16F10 melanoma cells. The data set is described as follows: adhesion of B16F10 melanoma cells to extracellular matrix protein adsorbed plates. It counts as cell-based. The method, then:
as §1, §2, §3

Data set [5] has as its system human platelets. The data set is described as follows: protection of human platelet fraction during storage.
Description: (§4) Immediately after the blood collection, the syringe was stirred gently to mix the blood with the sodium citrate solution. The mixed blood was centrifuged (1100 rpm, 250 g) at room temperature for 15 minutes and the rotation was stopped without applying the brake. Then, the supernatant was collected with a pipette to obtain a platelet fraction. The remaining blood was further centrifuged (3000 rpm, 1000 g). The supernatant was collected to obtain platelet-poor plasma and stored.
(§5) The platelet fraction was placed in a polypropylene test tube, which was capped with a membrane filter to ensure breathability. Then, the test tube was placed on a shaker and stored at room temperature while shaking through vibrational amplitude of 20 cm at a frequency of 2 Hz. All the operations were performed under aseptic conditions to prevent the proliferation of bacteria during the storage.
(§6) After the storage for a given period of time, an aliquot of the platelet fraction was sampled and the number of platelets was measured. Prostaglandin E1 (Sigma Co.) was added to give a final concentration of 20 μg/ml and centrifuged at 750 g for 10 minutes. The supernatant was removed and the remainder was washed twice with HEPES-Tyrode's buffer containing prostaglandin E1 to remove the protected peptide. Finally, the platelets were suspended in preliminarily stored platelet-poor plasma. After the incubation for a given period of time, the aggregation ability of the platelets was determined by the method described above.
Data set [6] deals with human platelets.
Description: as §4, §5, §6
The subject of data set [7] is platelet aggregation. As to conditions: 400 μM; cited from earlier work.
Setting [8] is: during the continuous injection of the drug.
Setting [9] is: type 1 collagen, type 4 collagen, fibronectin, vitronectin.

In the case of `N=C(N)NCCC[C@H](NC(=O)[C@H](CO)NC(=O)c1cc(=O)[nH]c(=O)[nH]1)C(=O)NCC(=O)N[C@@H](CC(=O)O)C(=O)N[C@@H](Cc1c[nH]c2ccccc12)C(=O)O` [Example 9, Orotyl--Ser--Arg--Gly--Asp--Trp--OH] (X1-SRGDW-OH), the “platelet aggregation time course with changed collagen concentration or ADP as inducer” value in data set [1] is “the same results were obtained”. Besides, the “platelet aggregation 5 minutes after the injection” value in data set [1] (collagen 10 μg/ml as inducer) is recorded as “completely inhibited”. The “time to complete recovery of platelet aggregation activity to the level before the injection” value in data set [1] (collagen 10 μg/ml as inducer) is 45 to 60 min. Besides, the “increase in the perfusion pressure” value in data set [2] (10 mg/dog continuously injected over 1 hour) is listed as “the increase rate of the perfusion pressure was evidently slow”; in data set [2] (30 mg/dog continuously injected over 1 hour, during the injection), “little or no increase in the perfusion pressure”. Besides, the “blood coagulation ability during the continuous injection” value in data set [2] (setting [8]) is listed as “approximately 0%”. Besides, the “whole blood coagulation time” value in data set [2] (setting [8]) is “significantly prolonged”. Further, the “effect on cell adhesion to laminin” value in data set [3] (laminin) and in data set [4] (laminin) was “scarcely any effect” in each case. Further, the “cell adhesion to the other extracellular matrix proteins” value in data set [3] (setting [9]) and in data set [4] (setting [9]) was “inhibited depending on the concentration” throughout. In addition, in data set [5] (400 μM, after the 72 hour storage), the “aggregation activity of platelets remaining” value is given as 60-70%. Moreover, the “decrease in the number of platelets” value in data set [5] (400 μM, storage period of 72 hours) is “little decrease in the number of platelets”. In data set [5] (dependent on peptide concentration, control decreased to 25% in 72 hours), the “decrease in the aggregation activity of platelets during storage” value was “the decrease in the aggregation activity was significantly inhibited”. Besides, the “decrease in the number of platelets during storage compared to the control group” value in data set [5] (room temperature, shaking, dependent on peptide concentration) is “significant inhibitory effect on the decrease in the number of platelets”.
Consider `NC(N)=NCCC[C@H](N)C(=O)NCC(=O)N[C@@H](CC(=O)O)C(=O)N[C@@H](CO)C(=O)O` [Comparative Example 1, Arg--Gly--Asp--Ser--OH], for which the “stability when added to a platelet fraction” value in data set [6] was “broken down in several hours”.
Regarding GRGDSP, the “aggregation of platelets activated by ADP” value in data set [7] is “completely inhibited”.
